Measured values as given in patent US20130123618A1, “Imaging Agents” (priority 2008, published 2013).

Assays:
Format in all cases: cell-based
[1] = tested on: U87 Human Glioma cells; experiment: in vitro amino acid uptake in U87 cells
Excerpt: Compounds have been evaluated in vitro for tumor binding specificity (i.e. uptake cells) using a variety of tumor cell lines available in the art, along with reference compounds such as Me-AlB and BCH. Detailed description of these assays can be found in Martarello et al. (2002) Journal of Medicinal Chemistry, 45:2250-2259 and McConathy et al. (2003) Nuclear Medicine and Biology, 30:477-490. These so called “amino acid uptake studies” are typically carried out with radiolabeled compounds in at least five phenotypically different human tumor cell lines (e.g., A549 lung carcinoma, MB468 breast carcinoma, DU145 prostate carcinoma-androgen independent, LnCap-androgen dependent, SKOV3 ovarian carcinoma, U87 glial blastoma, MIA PaCa-2 pancreas carcinoma, MDA MB231 breast carcinoma). These tumor cell lines can be grown either in vitro or in vivo with severe combined immunodeficiency (SCID) mice as a host. The afore-mentioned tumor cell lines are available at the Winship Cancer Institute of Emory University.
For the in vitro amino acid uptake studies, all cells can be grown to monolayer confluency in T-175 culture flasks [Corning, Corning, N.Y.] (approx. 1×10^8 cells/flask) in Dulbecco's Modified Eagle's Medium (DMEM) [Sigma, St. Louis, Mo.] in a humidified incubator (37° C., 5% CO2/95% air). […]
(§1) In the in vitro studies the uptake rate of each amino acid compound is measured in each tumor line, as well as the dominant transport mechanisms of each tumor cell line. After trypsinization, cells are resuspended in serum-free media, then counted on a hemocytometer, with viability assessed through Trypan blue staining. […] The vials are placed in a Cobra-II gamma counter (Packard, Meriden, Conn.), with the activity per cell number determined. […] Saline washes are performed as described above, and the filtered cells' radioactivity determined on the gamma counter. […]
(§2) The uptake of all compounds were measured in human and rat cancer cell lines and the dominant transport (“A” and “L”) mechanism of each culture were determined. […]

[2] = tested on: LnCap Human Prostate carcinoma cells; experiment: in vitro amino acid uptake in LnCap cells
Procedure: (§3) Compounds have been evaluated in vitro for tumor binding specificity (i.e. uptake cells) using a variety of tumor cell lines available in the art, along with reference compounds such as Me-AlB and BCH. Detailed description of these assays can be found in Martarello et al. (2002) Journal of Medicinal Chemistry, 45:2250-2259 and McConathy et al. (2003) Nuclear Medicine and Biology, 30:477-490. […]
as §1, §2

[3] = tested on: MIA PaCa-2 Human Pancreas carcinoma cells; experiment: in vitro amino acid uptake in MIA PaCa-2 cells
Procedure: as §3, §1, §2

[4] = tested on: MDA MB231 Human Breast carcinoma cells; experiment: in vitro amino acid uptake in MDA MB231 cells
Procedure: as §3, §1, §2

Row | Structure (SMILES) | % Dose uptake per 0.5 × 10−6 Cells [1] | % Dose uptake per 0.5 × 10−6 Cells [2] | % Dose uptake per 0.5 × 10−6 Cells [3] | % Dose uptake per 0.5 × 10−6 Cells [4]
1 | NC1(C(=O)O)CCC1[18F] (racemic) [racemic anti-2-[^18F]FACBC] | 8.3 % Dose/0.5 × 10^−6 |  |  | 
2 | N[C@]1(C(=O)O)CCC[C@@H]1[18F] (single isomer, unassigned; enantiomer 1) [Enantiomer 1, anti-2-[^18F]FACPC] | 28 % Dose/0.5 × 10^−6 | 6.5 % Dose/0.5 × 10^−6 | 6.8 % Dose/0.5 × 10^−6 | 9.1 % Dose/0.5 × 10^−6
